In patent US20180203025A1, “HDL THERAPY MARKERS” (Cerenis Therapeutics Holding SA, priority 2014, published 2018):

Assays:
[1] = tested on: ABCA1 protein in J774 macrophages; experiment: ABCA1 protein level in J774 macrophages (SDS PAGE, anti-ABCA1); type: cell-based, mouse; conditions: Study H; 250 μg/mL, 6 hours
[2] = tested on: ABCA1 in mouse liver; experiment: ABCA1 protein content in mouse liver; type: in vivo; conditions: 24 hours after the last injection; increasing concentrations
Experimental: This study examined the SR-BI and ABCA1 protein content in the liver 24 hours after the last injection of CER-001. A piece of liver (50 mg) was lysed in PBS (500 μL) by brief sonication. The sample was centrifuged (800×g for 10 minutes) and the pellet was discarded. The supernatant was centrifuged for 30 minutes at 16,000×g at 4° C. and the pellet was solubilized with PBS 1% Triton X100 (200 μL). 10 μg of solubilized pellet was loaded on SDS PAGE 10% and ABCA1 expression (ab7360—dilution 1/1000) or SR-BI expression (ab24603—dilution 1/1000) was quantified using imageJ® software.

[3] = tested on: total plaque volume in a 30 mm segment of the target coronary artery; experiment: CHI SQUARE phase II trial, IVUS first approach; type: in vivo, human
Description: 504 subjects presenting with acute chest pain or other angina equivalent symptoms, indicative of a diagnosis of ST segment elevation myocardial infarction, non-ST elevation myocardial infarction or unstable angina were enrolled. To be eligible, subjects must have angiographic evidence of coronary artery disease as defined by at least one lesion in any of the three major native coronary arteries that has >20% reduction in lumen diameter by angiographic visual estimation or prior history of percutaneous coronary intervention (“PCI”). The target vessel for PCI was not the target coronary artery for research IVUS, and any vessel with previous PCI could not be used as the target coronary artery.
The study design is illustrated in FIG. 1. The primary endpoint was the nominal change in total plaque volume in a 30 mm segment of the target coronary artery assessed by 3 dimensional IVUS (intra-vascular ultrasound). The key secondary endpoints were % change in plaque volume and change in % atheroma volume in the target 30 mm segment, the change in total vessel volume in the target 30 mm segment, and changes in plaque, lumen and total vessel volumes from baseline in the least and most diseased 5 mm segments. Morbidity and mortality were exploratory endpoints.
Mean total atheroma volume at baseline was 155.24±67.99 mm^3. The adjusted means for change in total atheroma volume were −2.71, −3.13, −1.50 and −3.05 mm^3 in the placebo, CER-001 3 mg/kg, CER-001 6 mg/kg and CER-001 12 mg/kg groups, respectively (p=0.81 for the prespecified primary analysis of 12 mg/kg versus placebo). There were also no differences compared to placebo for the CER-001 6 mg/kg (nominal p=0.45) and 3 mg/kg (nominal p=0.77) groups. The change in percent atheroma volume was similar among all study groups (0.02, −0.02, 0.01 and 0.19% in the placebo, CER-001 3 mg/kg (p=0.86), CER-001 6 mg/kg (p=0.95) and CER-001 12 mg/kg (p=0.53) groups (nominal p-values versus placebo).
In contrast to the “walk-along” approach discussed below, frame pairs were individually selected for optimum readability. Frames were selected based upon absence of echogenicity (calcium) and side branches. A maximum of 31 frames were selected over a 30 mm segment, excluding the benefit of pull-backs longer than 30 mm. No pre-defined criteria were used to select the 31 frames for inclusion in analysis set when >31 frames available.

[4] = Plasma human ApoA-I by ELISA in apoE−/− mice; type: in vivo, mouse
Experimental: This study examined the kinetics of the CER-001 infusion by determining the concentration of human ApoA-I in the plasma after infusion of CER-001. The ApoA-I concentration in plasma was determined by ELISA (Assay Pro EA5201-1) following manufacturer instructions.

[5] = tested on: SR-BI mRNA in HepG2 (human hepatocytes); experiment: SR-BI mRNA in HepG2 hepatocytes; type: cell-based; conditions: Study K, 0.25, 25 and 250 μg/mL, 6 hours
Experimental: HepG2 (human hepatocytes) and Hepa1-6 (mouse hepatocytes) were seeded on 6 well plates (300,000 cells/well) in DMEM 10% FCS. […] Gene expression was assayed using the protocols described in Sections 8.3.2 (RNA extraction); 8.3.4 (reverse transcription), and 8.3.5 (qPCR). ABCA1 (Taqman probe Hs01059118.m1 and Mm00442646.m1 for respectively HepG2 and Hepa1-6) and SR-BI (Taqman probe Hs00969821.m1 and Mm00450234.m1 for respectively HepG2 and Hepa1-6) expression was determined according to the manufacturer's protocol. The reference gene used is HPRT1 (Taqman probe: Mm00446968.m1) for Hepa1-6 and GAPDH (Taqman probe: Hs03929097.g1) for HepG2 cells.

Q: With “CER-001: engineered recombinant human apolipoprotein A-I HDL with sphingomyelin and DPPG; protein-to-phospholipid ratio 1:2.7, 97% Sph and 3% DPPG” as the substance, how does the ABCA1 protein level [1] read?
A: significant decrease of ABCA1 protein level

Q: What about the “liver ABCA1 protein level” value [2] of the same substance?
A: increase in ABCA1 protein level

Q: And the “adjusted mean change in total atheroma volume” value (“adjusted mean change” below) ([3]; 3 mg/kg)?
A: −3.13 mm^3

Q: What about the “change in percent atheroma volume” value ([3]; 3 mg/kg) of the same substance?
A: −0.02%

Q: And the “adjusted mean change” value ([3]; 6 mg/kg)?
A: −1.50 mm^3

Q: And the “change in percent atheroma volume” value ([3]; 6 mg/kg)?
A: 0.01%

Q: And the “adjusted mean change” value ([3]; 12 mg/kg)?
A: −3.05 mm^3

Q: What about the “change in percent atheroma volume” value ([3]; 12 mg/kg) of the same substance?
A: 0.19%

Q: And the “human ApoA-I plasma concentration” value ([4]; 2-50 mg/kg)?
A: dose-dependent increase

Q: What about the “human plasma ApoA-I relative to expected doses” value ([4]; mouse, in vivo) of the same substance?
A: expected doses of ApoA-I in plasma were retrieved

Q: What about the “SR-BI mRNA level” value [5] of the same substance?
A: No significant decrease
